The record followed here is patent US20250051321A1, “TRICYCLIC DERIVATIVE AND PREPARATION METHOD THEREFOR AND APPLICATION THEREOF” (SHANGHAI JEMINCARE PHARMACEUTICAL CO., LTD., priority 2021, published 2025).

Where two headings read alike, the source gives them in different places.

The subject of the assay is plasma LPA 18:1 and LPA 18:2. The assay can be described thus: Human plasma ex vivo assay (LPA 18:1 / 18:2 by LC-MS/MS). Type of assay: biochemical. The note with it: 37° C., 2 hours. Here is the method:
The collected plasma was centrifuged at 4000 rpm for 15 minutes at 4° C. The supernatant was aliquoted into a 96-well plate (25 μL per well), sealed, and frozen at −80° C. for further use.
LPA 17:0 powder was dissolved in a mixed solution of water: isopropanol: formic acid (1:1:1) to a final concentration of […]. The mixture was aliquoted and frozen at −20° C.
1 volume of formic acid was added to 1000× methanol, mixed well, and stored at 4° C. a) The 96-well plate containing frozen plasma was removed from the −80° C. freezer and thawed on ice at room temperature. b) 6 μL of 50× LPA 17:0 (internal standard) and 264 μL of 0.1% FA were added to a clean well of the 96-well plate; the final concentration of LPA 17:0 (internal standard) was 50 nM. c) 6× compound was 1:3 serially diluted to a total of 8 concentrations, and 5 μL of the compound per well was added to the 96-well plate containing plasma. The maximum final concentration of the compound was 10 μM, and the final concentration of DMSO was 0.1%. The plate was centrifuged at 300 rpm for 30 seconds. The DMSO control sample reacted for 0 hours was used as the minimum value (Min), and the DMSO control sample reacted for 2 hours was used as the maximum value (Max). […]
d) The DMSO sample reacted for 0 hours was rapidly transferred to 0.1% FA solution containing the internal standard in step b) to terminate the reaction and precipitate plasma proteins. e) The 96-well plate containing plasma and compounds was rapidly incubated in a 37° C. incubator for 2 hours. After the incubation, 6 μL of 10× LPA 17:0 and 264 μL of 0.1% FA were added to each well to terminate the reaction and precipitate plasma proteins. […]
f) All the samples were mixed well with a pipette, and centrifuged at 4000 rpm for 10 minutes at 4° C. 150 μL of the supernatant was added to a 96-well U-bottom plate (Thermo 267245), sealed with silica gel, and then loaded. The contents of LPA 18:1 and LPA 18:2 in the samples were detected by LC-MS/MS system.
LPA 18:1(or 18:2) relative content=LPA 18:1(or 18:2) peak area/LPA 17:0 peak area Percentage reduction (%) in plasma LPA18:1(or 18:2)=(Max−X)/(Max−Min)*100 Max: LPA 18:1 (or 18:2) relative content of the DMSO sample reacted for 2 hours Min: LPA 18:1 (or 18:2) relative content of the DMSO sample reacted for 0 hours X: LPA 18:1 (or 18:2) relative content of the sample after compound treatment for 2 hours The IC50 of the compounds was calculated by fitting a nonlinear regression through percentage reduction in plasma LPA 18:1 (or 18:2) and log value of compound concentration using the software GraphPad Prism 8.
Y=Bottom+(Top−Bottom)/(1+10^((Log IC50−X)*Hill Slope))

Where [1] appears, read: LPA 18:1, read-out: Human plasma ex vivo assay IC50 (18:1 LPA).
The mark [2] stands for this setting: LPA 18:2, read-out: Human plasma ex vivo assay IC50 (18:2 LPA).

Regarding `Cc1cc(N2CC3(CN(C(=O)C(C)(C)O)C3)C2)nc2c(N(C)c3nc(-c4ccc(F)cc4)c(C#N)s3)c3c(nc12)[C@](C)(O)CC3` (single isomer, unassigned) [Example E25-a], the IC50 runs as follows: under setting [1], 372 nM; under setting [2], 366 nM.

As for `Cc1cc(N2CC3(CN(C(=O)C(C)(C)O)C3)C2)nc2c(N(C)c3nc(-c4ccc(F)cc4)c(C#N)s3)c3c(nc12)[C@@H](O)CC3` (single isomer, unassigned) [Example E32-a], the IC50 under setting [1] was determined as 323 nM and the half-maximal inhibitory concentration (IC50) under setting [2] is 331 nM. As for `Cc1cc(N2CC3(CN(C(=O)C(C)(C)O)C3)C2)nc2c(N(C)c3nc(-c4ccc(F)cc4)c(C#N)s3)c3c(nc12)[C@H](O)CC3` (single isomer, unassigned) [Example E32-b], the IC50 reads like this: under setting [1], 373 nM; under setting [2], 489 nM.

In the case of `CN(c1nc(-c2ccc(F)cc2)c(C#N)s1)c1c2c(nc3c(F)cc(N4CC5(CN(C(=O)C(C)(C)O)C5)C4)cc13)[C@@](C)(O)CC2` (single isomer, unassigned) [Example E35-a], the 50% inhibitory concentration (IC50) reads like this: under setting [1], 388 nM; under setting [2], 284 nM. For `CN(c1nc(-c2ccc(F)cc2)c(C#N)s1)c1c2c(nc3c(F)cc(N4CC5(CN(C(=O)[C@@H]6CCCO6)C5)C4)cc13)[C@@H](O)CC2` (single isomer, unassigned) [Example E54-a] the same measures were 725 nM and 483 nM. For `CN(c1nc(-c2ccc(F)cc2)c(C#N)s1)c1c2c(nc3ccc(N4CCN(CC(=O)N5CC(O)C5)CC4)nc13)COC2` [Example A13] the same measures were 194 nM and 206 nM. As to `CN(c1nc(-c2ccc(F)cc2)c(C#N)s1)c1c2c(nc3ccc(N4CC5(CN(C(=O)C(C)(C)O)C5)C4)nc13)CC2` [Example C24], the IC50 worked out at 232 nM under setting [1] and 221 nM under setting [2]. The corresponding values for `CN(c1nc(-c2ccc(F)cc2)c(C#N)s1)c1c2c(nc3c(F)cc(N4CC5(CN(C(=O)CN6CC[C@@H](O)C6)C5)C4)cc13)C(O)CC2` (stereo partly shown) [Example E27] are 287 nM and 314 nM. For `CN(c1nc(-c2ccc(F)cc2)c(C#N)s1)c1c2c(nc3c(F)cc(N4CC5(CN(C(=O)CN6CC[C@H](O)C6)C5)C4)cc13)C(O)CC2` (stereo partly shown) [Example E28] the same measures were 298 nM and 271 nM. With `CN(c1nc(-c2ccc(F)cc2)c(C#N)s1)c1c2c(nc3c(F)cc(N4CC5(CN(C(=O)C(C)(C)N)C5)C4)cc13)C(O)CC2` (stereo not shown) [Example E29], the IC50 under setting [1] was found to be 526 nM and the IC50 under setting [2] came to 522 nM. The corresponding values for `COC(C)(C)C(=O)N1CC2(C1)CN(c1cc(F)c3nc4c(c(N(C)c5nc(-c6ccc(F)cc6)c(C#N)s5)c3c1)CCC4O)C2` (stereo not shown) [Example E30] are 165 nM and 150 nM.

For `CN(c1nc(-c2ccc(F)cc2)c(C#N)s1)c1c2c(nc3c(F)cc(N4CC5(CN(CC(=O)N6CC[C@@H](O)C6)C5)C4)cc13)C(O)CC2` (stereo partly shown) [Example E31], the IC50 is, setting by setting: under setting [1], 222 nM; under setting [2], 164 nM.

Consider `CC(C(=O)N1CC(O)C1)N1CCN(c2cc(F)c3nc4c(c(N(C)c5nc(-c6ccc(F)cc6)c(C#N)s5)c3c2)CCC4O)CC1` (stereo not shown) [Example E33], for which the IC50 runs as follows: under setting [1], 323 nM; under setting [2], 154 nM. For `CN(c1nc(-c2ccc(F)cc2)c(C#N)s1)c1c2c(nc3c(F)cc(N4CC5(CN(C(=O)C(C)(C)O)C5)C4)cc13)C(C)(O)CC2` (stereo not shown) [Example E35] the same measures were 301 nM and 393 nM. The corresponding values for `CN(c1nc(-c2ccc(F)cc2)c(C#N)s1)c1c2c(nc3c(F)cc(N4CC5(CN(C(=O)C(C)(C)O)C5)C4)cc13)C(=O)CC2` [Example E36] are 371 nM and 308 nM. For `CN(c1nc(-c2ccc(F)cc2)c(C#N)s1)c1c2c(nc3c(F)cc(N4CC5(CN(C(=O)CO)C5)C4)cc13)C(O)CC2` (stereo not shown) [Example E39] the same measures were 317 nM and 398 nM.

With `CN(c1nc(-c2ccc(F)cc2)c(C#N)s1)c1c2c(nc3c(F)cc(N4CCN(CC(=O)N5CC[C@@H](O)C5)CC4)cc13)C(O)CC2` (stereo partly shown) [Example E40], the IC50 under setting [2] came to 336 nM.

`CN(c1nc(-c2ccc(F)cc2)c(C#N)s1)c1c2c(nc3c(F)cc(N4CCN(CC(=O)N5CC[C@H](O)C5)CC4)cc13)C(O)CC2` (stereo partly shown) [Example E41]: the IC50 is 305 nM under setting [1] and 295 nM under setting [2].

Turning to `CN1CCC(F)(C(=O)N2CC3(C2)CN(c2cc(F)c4nc5c(c(N(C)c6nc(-c7ccc(F)cc7)c(C#N)s6)c4c2)CCC5O)C3)C1` (stereo not shown) [Example E42], the IC50 under setting [1] amounted to 412 nM and the concentration for half-maximal inhibition (IC50) under setting [2] was found to be 469 nM. In the case of `CC(C)C(=O)N1CC2(C1)CN(c1cc(F)c3nc4c(c(N(C)c5nc(-c6ccc(F)cc6)c(C#N)s5)c3c1)CCC4O)C2` (stereo not shown) [Example E43], the concentration for half-maximal inhibition (IC50) under setting [1] is 654 nM and the half-maximal inhibitory concentration (IC50) under setting [2] worked out at 737 nM.

With `CN(c1nc(-c2ccc(F)cc2)c(C#N)s1)c1c2c(nc3c(F)cc(N4CC5(CN(CC(=O)N6CC(C)(O)C6)C5)C4)cc13)C(O)CC2` (stereo not shown) [Example E44], the IC50 reads like this: under setting [1], 293 nM; under setting [2], 296 nM. For `CN(c1nc(-c2ccc(F)cc2)c(C#N)s1)c1c2c(nc3c(F)cc(N4CC5(CCN(CC(=O)N6CC(O)C6)CC5)C4)cc13)C(O)CC2` (stereo not shown) [Example E45], the IC50 reads like this: under setting [1], 584 nM; under setting [2], 356 nM. Take `CN(c1nc(-c2ccc(F)cc2)c(C#N)s1)c1c2c(nc3c(F)cc(N4CC5(CN(C(=O)CN6CC(O)C6)C5)C4)cc13)C(O)CC2` (stereo not shown) [Example E47]: the IC50 by setting is: under setting [1], 437 nM; under setting [2], 409 nM.

For the compound `CN(c1nc(-c2ccc(F)cc2)c(C#N)s1)c1c2c(nc3c(F)cc(N4CCC5(CCN(CC(=O)N6CC(O)C6)CC5)C4)cc13)C(O)CC2` (stereo not shown) [Example E48], the IC50 amounted to 740 nM under setting [1] and 671 nM under setting [2].

Consider `CN(c1nc(-c2ccc(F)cc2)c(C#N)s1)c1c2c(nc3c(F)cc(N4CC5(CN(C(=O)C6CC(=O)OC67CCCC7)C5)C4)cc13)C(O)CC2` (stereo not shown) [Example E49], for which the concentration for half-maximal inhibition (IC50) is, setting by setting: under setting [1], 494 nM; under setting [2], 576 nM.

On to `CN(c1nc(-c2ccc(F)cc2)c(C#N)s1)c1c2c(nc3c(F)cc(N4CC5(CN(C(=O)[C@H]6CCCN6C)C5)C4)cc13)C(O)CC2` (stereo partly shown) [Example E50], for which the IC50 was 583 nM under setting [1] and 546 nM under setting [2].

Consider `CN(c1nc(-c2ccc(F)cc2)c(C#N)s1)c1c2c(nc3c(F)cc(N4CC5(CN(C(=O)[C@@H]6CCCN6C)C5)C4)cc13)C(O)CC2` (stereo partly shown) [Example E51], for which the 50% inhibitory concentration (IC50) under setting [1] was 348 nM and the IC50 under setting [2] is 850 nM. The corresponding values for `CN(c1nc(-c2ccc(F)cc2)c(C#N)s1)c1c2c(nc3c(F)cc(N4CC5(CN(C(=O)C6(N)CCOC6)C5)C4)cc13)C(O)CC2` (stereo not shown) [Example E52] are 670 nM and 423 nM.

On to `CN(c1nc(-c2ccc(F)cc2)c(C#N)s1)c1c2c(nc3c(F)cc(N4CC5(CN(C(=O)C6CCOC6=O)C5)C4)cc13)C(O)CC2` (stereo not shown) [Example E56], for which the half-maximal inhibitory concentration (IC50) was determined as 499 nM under setting [1] and 440 nM under setting [2]. For `CN(c1nc(-c2ccc(F)cc2)c(C#N)s1)c1c2c(nc3c(F)cc(N4CC5(CN(CC(=O)N6CC(O)C6)C5)C4)cc13)C(O)CC2` (stereo not shown) [Example E57] the same measures were 183 nM and 171 nM.

For the compound `CN(c1nc(-c2ccc(F)cc2)c(C#N)s1)c1c2c(nc3c(F)cc(N4CC5(CN(C(=O)C6CC(O)C6)C5)C4)cc13)C(O)CC2` (stereo not shown) [Example E58], the IC50 under setting [1] stood at 263 nM and the 50% inhibitory concentration (IC50) under setting [2] was 271 nM.
